# Values of other authors, collected in patent publication US6646013B1, “Nutrient formulations for disease reduction” (Nutri-Logics, priority 1999, dated 2003).
# Read-outs that look alike come from different tables or passages of the source.
# Legend:
# [1] = tested on: prostate cancer; details: vitamin E intake [37]
# [2] = tested on: vitamin K activity; details: vitamin K-deficient patients
# [3] = tested on: colon carcinogenesis; details: rat colon model for carcinogenesis
# [4] = tested on: mice; details: oral doses
# [5] = tested on: rats; details: oral doses
# [6] = animal fertility studies
# [7] = not given; remark: listed apart in the source
# [8] = circulation
# [9] = tested on: colorectal cancer; details: meta-analysis of twenty-four studies, calcium intake
# [10] = not given; remark: listed apart in the source
# [11] = gastrointestinal side effects (distress, bloating)
# [12] = not given; remark: listed apart in the source
# [13] = not given; remark: listed apart in the source
# [14] = saturable absorption
# [15] = normal parathyroid function and vitamin D sensitivity
# [16] = not given; remark: listed apart in the source
# [17] = tested on: colon cancer; details: patients with chronic ulcerative colitis
compound,measurement,setting,value
"Cc1c(C)c2c(c(C)c1O)CCC(C)(CCCC(C)CCCC(C)CCCC(C)C)O2 (stereo not shown) [vitamin E, 3,4-Dihydro-2,5,7,8-tetramethyl-2-(4,8,12-trimethyltridecyl)-2H-1-benzopyran-6-ol]",decrease in the incidence of prostate cancer,[1],34%
same,prolonged daily intake after which bleeding is a concern,[2],> 800 IU
Cyanocobalamin [vitamin B12],share of the body's stores in the liver,,≤ 90%
"COc1cc(/C=C/C(=O)CC(=O)/C=C/c2ccc(O)c(OC)c2)ccc1O [curcumin, (E,E)-1,7-Bis(4-hydroxy-3-methoxyphenyl)-1,6-heptadiene-3,5-dione]",efficacy of pure form (>98%) versus food-grade curcumin,[3],equally effective
"CC(=O)N[C@@H](CS)C(=O)O [NAC, N-Acetyl-l-cysteine]",LD50,[4],7888 mg/kg
same,LD50,[5],greater than 6000 mg/kg
same,dose with no adverse effects reported,[6],up to 250 mg/kg
same,dose with no teratogenic effects observed,[6],≤ 2000 mg/kg
same,plasma half-life of free NAC,[7]; estimated,about 2 hours
same,time to peak plasma NAC concentration,[7]; oral administration,less than one
same,bioavailability of the intact NAC molecule,"[7]; oral, estimated",4-10%
same,time post-administration at which virtually no NAC is detected,[7]; plasma,10 to 12 h
"Cc1ncc(COP(=O)(O)O)c(C=O)c1O [Pyridoxal phosphate, pyridoxal 5′ phosphate]",share of circulating vitamin B6,[8],at least 60%
[Ca] [calcium],summary relative risk of colorectal cancer,[9],0.89 (0.79-1.01)
same,fraction complexed to anionic buffers,[10]; human plasma,about 10%
same,fraction bound to plasma proteins,"[10]; human plasma, primarily albumin",approximately 45%
same,fraction of filtered Ca2+ reabsorbed,[10]; kidney,approximately 98%
same,supplement dose above which generally not well tolerated,[11],exceeding 800 mg per day
"O=C(O)c1ccccc1O [Salicylate, salicylic acid]",time to peak plasma concentrations,[12]; oral,≤ 2 h
same,time to significant plasma concentrations,[12]; oral,≤ 30 min
same,excreted in the urine as acyl glucuronide,[12]; urine,5%
same,excreted in the urine as free salicylic acid,[12]; urine,10%
same,excreted in the urine as salicylic phenolic glucuronide,[12]; urine,10%
same,excreted in the urine as salicyluric acid,[12]; urine,75%
"Cc1ncc(CO)c(CO)c1O [vitamin B6, pyridoxine]",dose at which symptoms of dependency were noted,[13]; adults,200 mg daily
same,dose at which neurotoxicity may develop,[13]; prolonged ingestion,200 mg per day
"O=C1O[C@H]([C@@H](O)CO)C(O)=C1O [Ascorbate, ascorbic acid]",concentration at which absorption is half-maximal,[14],about 1 mM
"C=C1CC[C@H](O)C/C1=C/C=C1\CCC[C@]2(C)[C@@H]([C@H](C)CCCC(C)C)CC[C@@H]12 [vitamin D, (3β,5Z,7E)-9,10-Secocholesta-5,7,10(19)-triene-3-ol]",continuous daily ingestion causing signs of hypervitaminosis,[15],"≥ 50,000 units daily"
"Nc1nc2ncc(CNc3ccc(C(=O)N[C@@H](CCC(=O)O)C(=O)O)cc3)nc2c(=O)[nH]1 [folic acid, N-[**4-[**[**(2-Amino-1,4-dihydro-4-oxo-6-pteridinyl)methyl]amino]benzoyl]-L-glutamic Acid]",dose with no adverse human effects,[16]; duration not stated,15 mg/day
same,dose with no adverse human effects,[16]; for 4 months,10 mg/day
same,lower incidence of colon cancer versus no supplementation,[17],62%
